Experimental data from patent publication US9340590B2 (priority 2011, dated 2016).
Positions of bridges follow the written chain, without caps; N, C: chain ends. Non-standard residues stand in square brackets, D forms with d. Residues, ends and D or L forms follow the SMILES beside them. Phe(4-COOH) = N[C@@H](Cc1ccc(C(=O)O)cc1)C(=O)O; Lys(Me2) = CN(C)CCCC[C@H](N)C(=O)O; NMeF = CN[C@@H](Cc1ccccc1)C(=O)O; 2Pal = N[C@@H](Cc1ccccn1)C(=O)O; Phg = N[C@H](C(=O)O)c1ccccc1

Legend:
Experiment in all cases: cell-based
[1] = target: hNav1.7 (Homo sapiens, UniProt Q15858); type: cell-based; details: IonWorks Quattro, Use; read-out: IWQ Use Nav1.7
[2] = target: hNav1.3 (Homo sapiens, UniProt Q9NY46); details: IonWorks Quattro, Use; read-out: IWQ Use Nav1.3
Chain of hNav1.3 (Q9NY46 whole entry, looked up): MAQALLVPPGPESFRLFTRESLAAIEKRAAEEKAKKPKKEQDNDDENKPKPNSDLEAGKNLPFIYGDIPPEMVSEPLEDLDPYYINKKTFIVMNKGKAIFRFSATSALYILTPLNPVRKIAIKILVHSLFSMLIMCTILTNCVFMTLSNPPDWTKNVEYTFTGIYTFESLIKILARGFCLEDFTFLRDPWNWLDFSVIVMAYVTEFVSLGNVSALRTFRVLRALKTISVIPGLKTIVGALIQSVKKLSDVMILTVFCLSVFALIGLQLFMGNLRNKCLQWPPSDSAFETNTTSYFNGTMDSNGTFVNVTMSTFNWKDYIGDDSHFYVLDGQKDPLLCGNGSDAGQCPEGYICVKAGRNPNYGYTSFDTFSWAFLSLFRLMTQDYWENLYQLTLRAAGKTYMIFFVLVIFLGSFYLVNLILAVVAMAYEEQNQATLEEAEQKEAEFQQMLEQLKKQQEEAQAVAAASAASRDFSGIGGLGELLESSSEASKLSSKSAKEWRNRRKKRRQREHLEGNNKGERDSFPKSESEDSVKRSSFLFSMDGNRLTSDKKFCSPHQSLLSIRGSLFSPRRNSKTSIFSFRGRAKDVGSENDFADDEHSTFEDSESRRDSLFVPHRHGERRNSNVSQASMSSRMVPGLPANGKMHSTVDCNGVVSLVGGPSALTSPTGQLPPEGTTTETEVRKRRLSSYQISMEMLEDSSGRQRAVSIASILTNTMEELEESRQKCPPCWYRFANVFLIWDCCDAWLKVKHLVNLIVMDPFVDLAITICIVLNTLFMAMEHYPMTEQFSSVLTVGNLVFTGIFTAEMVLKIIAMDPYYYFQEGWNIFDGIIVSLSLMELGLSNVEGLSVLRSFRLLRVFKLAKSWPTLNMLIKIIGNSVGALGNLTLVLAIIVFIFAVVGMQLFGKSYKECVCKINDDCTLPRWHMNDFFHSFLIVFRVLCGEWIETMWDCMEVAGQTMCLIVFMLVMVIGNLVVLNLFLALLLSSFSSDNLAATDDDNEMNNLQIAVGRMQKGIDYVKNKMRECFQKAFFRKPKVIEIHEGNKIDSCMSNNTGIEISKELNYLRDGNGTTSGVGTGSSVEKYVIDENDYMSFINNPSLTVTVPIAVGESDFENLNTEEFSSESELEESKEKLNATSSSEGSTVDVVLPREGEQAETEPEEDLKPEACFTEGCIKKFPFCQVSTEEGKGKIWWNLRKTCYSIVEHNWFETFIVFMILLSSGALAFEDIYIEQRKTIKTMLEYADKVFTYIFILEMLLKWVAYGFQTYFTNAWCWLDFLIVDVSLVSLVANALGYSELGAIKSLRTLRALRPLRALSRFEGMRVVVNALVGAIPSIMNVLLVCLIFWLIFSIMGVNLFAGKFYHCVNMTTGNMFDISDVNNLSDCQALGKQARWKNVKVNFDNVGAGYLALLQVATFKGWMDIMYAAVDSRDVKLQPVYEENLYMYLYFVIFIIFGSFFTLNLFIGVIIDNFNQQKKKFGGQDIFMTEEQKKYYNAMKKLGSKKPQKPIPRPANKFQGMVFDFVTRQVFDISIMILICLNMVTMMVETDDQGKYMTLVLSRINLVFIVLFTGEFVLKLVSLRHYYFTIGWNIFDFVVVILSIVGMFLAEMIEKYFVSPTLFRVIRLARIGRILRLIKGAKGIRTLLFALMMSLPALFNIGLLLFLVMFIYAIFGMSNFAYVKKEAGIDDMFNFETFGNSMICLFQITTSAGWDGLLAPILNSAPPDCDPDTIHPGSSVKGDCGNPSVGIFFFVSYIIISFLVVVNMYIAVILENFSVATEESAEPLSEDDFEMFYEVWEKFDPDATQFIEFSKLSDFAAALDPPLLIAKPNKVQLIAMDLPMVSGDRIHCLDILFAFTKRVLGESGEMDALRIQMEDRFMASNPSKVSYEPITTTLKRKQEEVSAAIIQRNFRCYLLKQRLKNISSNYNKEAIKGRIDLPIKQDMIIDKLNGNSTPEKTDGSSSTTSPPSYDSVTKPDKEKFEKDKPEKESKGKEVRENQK

[3] = target: hNav1.5 (Homo sapiens, UniProt Q14524); details: IonWorks Quattro, Use; read-out: IWQ Use Nav1.5
Chain of hNav1.5 (Q14524 whole entry, looked up): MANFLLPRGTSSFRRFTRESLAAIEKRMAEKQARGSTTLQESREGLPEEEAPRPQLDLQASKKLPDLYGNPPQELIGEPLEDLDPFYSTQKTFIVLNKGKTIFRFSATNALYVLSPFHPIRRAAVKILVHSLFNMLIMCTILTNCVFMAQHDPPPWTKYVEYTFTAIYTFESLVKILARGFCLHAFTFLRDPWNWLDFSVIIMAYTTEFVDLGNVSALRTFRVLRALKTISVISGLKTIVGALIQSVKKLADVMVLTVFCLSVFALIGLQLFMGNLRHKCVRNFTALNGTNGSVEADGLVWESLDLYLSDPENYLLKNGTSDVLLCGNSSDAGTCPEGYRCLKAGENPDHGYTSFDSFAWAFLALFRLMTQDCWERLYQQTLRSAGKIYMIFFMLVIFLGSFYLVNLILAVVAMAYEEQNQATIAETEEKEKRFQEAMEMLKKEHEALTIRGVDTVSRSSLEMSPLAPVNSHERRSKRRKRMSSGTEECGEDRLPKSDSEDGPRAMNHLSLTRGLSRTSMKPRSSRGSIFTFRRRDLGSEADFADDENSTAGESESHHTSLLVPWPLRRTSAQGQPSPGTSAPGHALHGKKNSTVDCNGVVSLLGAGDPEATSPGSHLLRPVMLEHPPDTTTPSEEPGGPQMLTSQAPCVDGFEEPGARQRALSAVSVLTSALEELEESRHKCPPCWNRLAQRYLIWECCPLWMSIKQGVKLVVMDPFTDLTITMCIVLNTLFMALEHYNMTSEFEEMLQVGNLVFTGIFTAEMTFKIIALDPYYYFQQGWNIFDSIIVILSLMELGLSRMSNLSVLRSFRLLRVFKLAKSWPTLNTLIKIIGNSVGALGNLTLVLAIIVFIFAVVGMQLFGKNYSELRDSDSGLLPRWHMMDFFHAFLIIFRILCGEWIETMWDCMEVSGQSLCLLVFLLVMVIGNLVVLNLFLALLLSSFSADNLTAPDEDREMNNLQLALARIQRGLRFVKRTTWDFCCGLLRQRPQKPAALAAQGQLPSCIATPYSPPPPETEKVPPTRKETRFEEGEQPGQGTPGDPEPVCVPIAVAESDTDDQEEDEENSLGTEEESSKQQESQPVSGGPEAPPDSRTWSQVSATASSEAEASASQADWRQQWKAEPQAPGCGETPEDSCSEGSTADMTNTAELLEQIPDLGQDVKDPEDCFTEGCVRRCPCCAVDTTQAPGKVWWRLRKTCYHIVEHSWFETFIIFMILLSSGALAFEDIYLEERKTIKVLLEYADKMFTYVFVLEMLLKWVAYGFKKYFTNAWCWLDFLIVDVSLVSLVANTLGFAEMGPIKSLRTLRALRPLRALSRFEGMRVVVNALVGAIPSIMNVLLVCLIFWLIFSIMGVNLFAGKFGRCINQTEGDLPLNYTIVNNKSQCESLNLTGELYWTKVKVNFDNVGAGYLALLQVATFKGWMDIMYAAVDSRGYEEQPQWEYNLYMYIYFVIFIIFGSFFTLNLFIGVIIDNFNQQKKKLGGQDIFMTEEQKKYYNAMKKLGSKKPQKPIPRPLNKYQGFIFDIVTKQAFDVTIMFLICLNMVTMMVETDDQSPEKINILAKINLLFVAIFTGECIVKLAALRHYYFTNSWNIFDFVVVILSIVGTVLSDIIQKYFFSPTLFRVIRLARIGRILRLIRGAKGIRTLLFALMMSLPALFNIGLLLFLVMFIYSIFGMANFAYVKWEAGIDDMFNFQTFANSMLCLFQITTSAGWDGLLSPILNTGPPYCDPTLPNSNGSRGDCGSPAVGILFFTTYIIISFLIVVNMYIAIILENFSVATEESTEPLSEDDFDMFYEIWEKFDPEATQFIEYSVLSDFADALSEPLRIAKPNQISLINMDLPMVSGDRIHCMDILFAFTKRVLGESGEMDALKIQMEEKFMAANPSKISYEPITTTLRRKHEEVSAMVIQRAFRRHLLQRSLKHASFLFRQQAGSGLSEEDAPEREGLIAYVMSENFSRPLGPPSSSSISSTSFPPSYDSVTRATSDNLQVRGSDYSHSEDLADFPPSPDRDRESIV

Compound	IC50 [1] [nM]	IC50 [2] [nM]	IC50 [3] [nM]
CC[C@H](C)[C@@H]1NC(=O)[C@@H]2CSSC[C@@H]3NC(=O)[C@H](Cc4ccccc4)N(C)C(=O)[C@H](CC(C)C)NC(=O)[C@H](CC(N)=O)NC(=O)[C@@H]4CCCN4C(=O)[C@H](CCCNC(=N)N)NC(=O)[C@H](CSSC[C@H](NC(=O)[C@@H](N)CC(=O)O)C(=O)N[C@@H](CC(C)C)C(=O)NCC(=O)N[C@@H](Cc4ccccc4)C(=O)N[C@@H](CCSC)C(=O)N[C@@H](CCCNC(=N)N)C(=O)N[C@@H](CCCCN)C(=O)N2)NC(=O)[C@H](CSSC[C@@H](C(=O)N[C@@H](CCCCN)C(=O)N[C@@H](Cc2ccc(O)cc2)C(=O)N[C@H](C(=O)N[C@@H](Cc2ccccc2)C(N)=O)C(C)C)NC(=O)[C@H](Cc2c[nH]c4ccccc24)NC(=O)[C@H](CCCCN)NC(=O)[C@H](Cc2c[nH]cn2)NC(=O)[C@H]([C@@H](C)O)NC(=O)[C@H](CCCNC(=N)N)NC(=O)[C@H](CO)NC3=O)NC(=O)[C@H](CCCCN)NC(=O)[C@H](CC(=O)O)NC(=O)[C@H](CC(N)=O)NC(=O)[C@H](CC(=O)O)NC(=O)[C@@H]2CCCN2C1=O [compound 328] (H-DCLGFMRKCIPDNDKCCRPNL[NMeF]CSRTHKWCKYVF-NH2; disulfide 2-17, 9-23, 16-30)	20600	7370	20400
CC[C@H](C)[C@@H]1NC(=O)[C@@H]2CSSC[C@@H]3NC(=O)[C@H]([C@@H](C)O)NC(=O)[C@H](CC(C)C)NC(=O)[C@H](CC(N)=O)NC(=O)[C@@H]4CCCN4C(=O)[C@H](CCCNC(=N)N)NC(=O)[C@H](CSSC[C@H](NC(=O)[C@@H](N)CC(=O)O)C(=O)N[C@@H](CC(C)C)C(=O)NCC(=O)N[C@@H](Cc4ccccc4)C(=O)N[C@@H](CCSC)C(=O)N[C@@H](CCCNC(=N)N)C(=O)N[C@@H](CCCCN)C(=O)N2)NC(=O)[C@H](CSSC[C@@H](C(=O)N[C@@H](CCCCN)C(=O)N[C@@H](Cc2ccc(O)cc2)C(=O)N[C@H](C(=O)N[C@@H](Cc2ccccc2)C(N)=O)C(C)C)NC(=O)[C@H](Cc2c[nH]c4ccccc24)NC(=O)[C@H](CCCCN)NC(=O)[C@H](Cc2c[nH]cn2)NC(=O)[C@H]([C@@H](C)O)NC(=O)[C@H](CCCNC(=N)N)NC(=O)[C@H](CO)NC3=O)NC(=O)[C@H](CCCCN)NC(=O)[C@H](CC(=O)O)NC(=O)[C@H](CC(N)=O)NC(=O)[C@H](CC(=O)O)NC(=O)[C@@H]2CCCN2C1=O [compound 329] (H-DCLGFMRKCIPDNDKCCRPNLTCSRTHKWCKYVF-NH2; disulfide 2-17, 9-23, 16-30)	120	80	4590
CC[C@H](C)[C@@H]1NC(=O)[C@@H]2CSSC[C@@H]3NC(=O)[C@H](c4ccccc4)NC(=O)[C@H](CC(C)C)NC(=O)[C@H](CC(N)=O)NC(=O)[C@@H]4CCCN4C(=O)[C@H](CCCNC(=N)N)NC(=O)[C@H](CSSC[C@H](NC(=O)[C@@H](N)CC(=O)O)C(=O)N[C@@H](CC(C)C)C(=O)NCC(=O)N[C@@H](Cc4ccccc4)C(=O)N[C@@H](CCSC)C(=O)N[C@@H](CCCNC(=N)N)C(=O)N[C@@H](CCCCN)C(=O)N2)NC(=O)[C@H](CSSC[C@@H](C(=O)N[C@@H](CCCCN)C(=O)N[C@@H](Cc2ccc(O)cc2)C(=O)N[C@H](C(=O)N[C@@H](Cc2ccccc2)C(N)=O)C(C)C)NC(=O)[C@H](Cc2c[nH]c4ccccc24)NC(=O)[C@H](CCCCN)NC(=O)[C@H](Cc2c[nH]cn2)NC(=O)[C@H]([C@@H](C)O)NC(=O)[C@H](CCCNC(=N)N)NC(=O)[C@H](CO)NC3=O)NC(=O)[C@H](CCCCN)NC(=O)[C@H](CC(=O)O)NC(=O)[C@H](CC(N)=O)NC(=O)[C@H](CC(=O)O)NC(=O)[C@@H]2CCCN2C1=O [compound 330] (H-DCLGFMRKCIPDNDKCCRPNL[Phg]CSRTHKWCKYVF-NH2; disulfide 2-17, 9-23, 16-30)	180	70	4690
CC[C@H](C)[C@@H]1NC(=O)[C@@H]2CSSC[C@@H]3NC(=O)[C@H](Cc4ccc(O)cc4)NC(=O)[C@H](CC(C)C)NC(=O)[C@H](CC(N)=O)NC(=O)[C@@H]4CCCN4C(=O)[C@H](CCCNC(=N)N)NC(=O)[C@H](CSSC[C@H](NC(=O)[C@@H](N)CC(=O)O)C(=O)N[C@@H](CC(C)C)C(=O)NCC(=O)N[C@@H](Cc4ccccc4)C(=O)N[C@@H](CCSC)C(=O)N[C@@H](CCCNC(=N)N)C(=O)N[C@@H](CCCCN)C(=O)N2)NC(=O)[C@H](CSSC[C@@H](C(=O)N[C@@H](CCCCN)C(=O)N[C@@H](Cc2ccc(O)cc2)C(=O)N[C@H](C(=O)N[C@@H](Cc2ccccc2)C(N)=O)C(C)C)NC(=O)[C@H](Cc2c[nH]c4ccccc24)NC(=O)[C@H](CCCCN)NC(=O)[C@H](Cc2c[nH]cn2)NC(=O)[C@H]([C@@H](C)O)NC(=O)[C@H](CCCNC(=N)N)NC(=O)[C@H](CO)NC3=O)NC(=O)[C@H](CCCCN)NC(=O)[C@H](CC(=O)O)NC(=O)[C@H](CC(N)=O)NC(=O)[C@H](CC(=O)O)NC(=O)[C@@H]2CCCN2C1=O [compound 331] (H-DCLGFMRKCIPDNDKCCRPNLYCSRTHKWCKYVF-NH2; disulfide 2-17, 9-23, 16-30)	560	500	4260
CC[C@H](C)[C@@H]1NC(=O)[C@@H]2CSSC[C@@H]3NC(=O)[C@H](CCSC)NC(=O)[C@H](CC(C)C)NC(=O)[C@H](CC(N)=O)NC(=O)[C@@H]4CCCN4C(=O)[C@H](CCCNC(=N)N)NC(=O)[C@H](CSSC[C@H](NC(=O)[C@@H](N)CC(=O)O)C(=O)N[C@@H](CC(C)C)C(=O)NCC(=O)N[C@@H](Cc4ccccc4)C(=O)N[C@@H](CCSC)C(=O)N[C@@H](CCCNC(=N)N)C(=O)N[C@@H](CCCCN)C(=O)N2)NC(=O)[C@H](CSSC[C@@H](C(=O)N[C@@H](CCCCN)C(=O)N[C@@H](Cc2ccc(O)cc2)C(=O)N[C@H](C(=O)N[C@@H](Cc2ccccc2)C(N)=O)C(C)C)NC(=O)[C@H](Cc2c[nH]c4ccccc24)NC(=O)[C@H](CCCCN)NC(=O)[C@H](Cc2c[nH]cn2)NC(=O)[C@H]([C@@H](C)O)NC(=O)[C@H](CCCNC(=N)N)NC(=O)[C@H](CO)NC3=O)NC(=O)[C@H](CCCCN)NC(=O)[C@H](CC(=O)O)NC(=O)[C@H](CC(N)=O)NC(=O)[C@H](CC(=O)O)NC(=O)[C@@H]2CCCN2C1=O [compound 332] (H-DCLGFMRKCIPDNDKCCRPNLMCSRTHKWCKYVF-NH2; disulfide 2-17, 9-23, 16-30)	90	80	4610
CC[C@H](C)[C@@H]1NC(=O)[C@@H]2CSSC[C@@H]3NC(=O)[C@H](Cc4ccc(C(=O)O)cc4)NC(=O)[C@H](CC(C)C)NC(=O)[C@H](CC(N)=O)NC(=O)[C@@H]4CCCN4C(=O)[C@H](CCCNC(=N)N)NC(=O)[C@H](CSSC[C@H](NC(=O)[C@@H](N)CC(=O)O)C(=O)N[C@@H](CC(C)C)C(=O)NCC(=O)N[C@@H](Cc4ccccc4)C(=O)N[C@@H](CCSC)C(=O)N[C@@H](CCCNC(=N)N)C(=O)N[C@@H](CCCCN)C(=O)N2)NC(=O)[C@H](CSSC[C@@H](C(=O)N[C@@H](CCCCN)C(=O)N[C@@H](Cc2ccc(O)cc2)C(=O)N[C@H](C(=O)N[C@@H](Cc2ccccc2)C(N)=O)C(C)C)NC(=O)[C@H](Cc2c[nH]c4ccccc24)NC(=O)[C@H](CCCCN)NC(=O)[C@H](Cc2c[nH]cn2)NC(=O)[C@H]([C@@H](C)O)NC(=O)[C@H](CCCNC(=N)N)NC(=O)[C@H](CO)NC3=O)NC(=O)[C@H](CCCCN)NC(=O)[C@H](CC(=O)O)NC(=O)[C@H](CC(N)=O)NC(=O)[C@H](CC(=O)O)NC(=O)[C@@H]2CCCN2C1=O [compound 333] (H-DCLGFMRKCIPDNDKCCRPNL[Phe(4-COOH)]CSRTHKWCKYVF-NH2; disulfide 2-17, 9-23, 16-30)	5770	4470	7500
CC[C@H](C)[C@@H]1NC(=O)[C@@H]2CSSC[C@@H]3NC(=O)[C@H](Cc4ccccn4)NC(=O)[C@H](CC(C)C)NC(=O)[C@H](CC(N)=O)NC(=O)[C@@H]4CCCN4C(=O)[C@H](CCCNC(=N)N)NC(=O)[C@H](CSSC[C@H](NC(=O)[C@@H](N)CC(=O)O)C(=O)N[C@@H](CC(C)C)C(=O)NCC(=O)N[C@@H](Cc4ccccc4)C(=O)N[C@@H](CCSC)C(=O)N[C@@H](CCCNC(=N)N)C(=O)N[C@@H](CCCCN)C(=O)N2)NC(=O)[C@H](CSSC[C@@H](C(=O)N[C@@H](CCCCN)C(=O)N[C@@H](Cc2ccc(O)cc2)C(=O)N[C@H](C(=O)N[C@@H](Cc2ccccc2)C(N)=O)C(C)C)NC(=O)[C@H](Cc2c[nH]c4ccccc24)NC(=O)[C@H](CCCCN)NC(=O)[C@H](Cc2c[nH]cn2)NC(=O)[C@H]([C@@H](C)O)NC(=O)[C@H](CCCNC(=N)N)NC(=O)[C@H](CO)NC3=O)NC(=O)[C@H](CCCCN)NC(=O)[C@H](CC(=O)O)NC(=O)[C@H](CC(N)=O)NC(=O)[C@H](CC(=O)O)NC(=O)[C@@H]2CCCN2C1=O [compound 334] (H-DCLGFMRKCIPDNDKCCRPNL[2Pal]CSRTHKWCKYVF-NH2; disulfide 2-17, 9-23, 16-30)	330	140	11000
CC[C@H](C)[C@@H]1NC(=O)[C@@H]2CSSC[C@@H]3NC(=O)[C@H](C(C)C)NC(=O)[C@H](CC(C)C)NC(=O)[C@H](CC(N)=O)NC(=O)[C@@H]4CCCN4C(=O)[C@H](CCCNC(=N)N)NC(=O)[C@H](CSSC[C@H](NC(=O)[C@@H](N)CC(=O)O)C(=O)N[C@@H](CC(C)C)C(=O)NCC(=O)N[C@@H](Cc4ccccc4)C(=O)N[C@@H](CCSC)C(=O)N[C@@H](CCCNC(=N)N)C(=O)N[C@@H](CCCCN)C(=O)N2)NC(=O)[C@H](CSSC[C@@H](C(=O)N[C@@H](CCCCN)C(=O)N[C@@H](Cc2ccc(O)cc2)C(=O)N[C@H](C(=O)N[C@@H](Cc2ccccc2)C(N)=O)C(C)C)NC(=O)[C@H](Cc2c[nH]c4ccccc24)NC(=O)[C@H](CCCCN)NC(=O)[C@H](Cc2c[nH]cn2)NC(=O)[C@H]([C@@H](C)O)NC(=O)[C@H](CCCCN(C)C)NC(=O)[C@H](CO)NC3=O)NC(=O)[C@H](CCCCN)NC(=O)[C@H](CC(=O)O)NC(=O)[C@H](CC(N)=O)NC(=O)[C@H](CC(=O)O)NC(=O)[C@@H]2CCCN2C1=O [compound 335] (H-DCLGFMRKCIPDNDKCCRPNLVCS[Lys(Me2)]THKWCKYVF-NH2; disulfide 2-17, 9-23, 16-30)	310	110	7930
